Test results as given in US20250177290A1, “DRUG-ELUTING SURGICAL ARTICLES AND METHODS OF USE THEREOF” (BIOSAPIEN INC., priority 2022, published 2025).

System: CT26 colorectal carcinoma murine model
Conditions: mouse, in vivo
Protocol: Efficacy was tested in murine model (BSPN02). CT26 colorectal cell lines in a murine model were chosen to conduct toxicity and safety studies in-vivo. The safety profile of Biomaterial-5-FU was compared with other control groups, and five aspects were evaluated as follows: (i) change in the body weight over time, (ii) organ weight and the ratio of organ to body weight, (iii) Hematoxylin-Eosin (H & E) staining for histological changes, (iv) a hepatic function panel, and (v) blood chemistry to assess impact on bone marrow. For H & E staining, five major organs (liver, heart, spleen, lungs, and kidneys) were collected from the mice at each time point. […] This toxic effect was not observed in mice treated with Biomaterial-5-FU. […] This toxic effect was not observed in mice treated with Biomaterial-5-FU.

## O=c1[nH]cc(F)c(=O)[nH]1 [IV 5-FU, 5-fluoro-1H-pyrimidine-2,4-dione]
  toxic effect: absolute numbers of white blood cells: reduction in the absolute numbers of white blood cells
  toxic effect: number of monocytes and other leukocytes (bone marrow suppression): reduction in the number of monocytes and other leukocytes
